This note sets out measurements from ChEMBL document CHEMBL6074690, “Development and Characterization of a High-Affinity Selective Galectin-3 Mouse Tool Compound in Mouse Models of Cancer” (J Med Chem, 2024).

The structures appear in SMILES notation.

A short description of data set [1]: Apparent permeability across basal to apical side in human Caco-2 cells at 10 uM incubated for 90 mins by LC-MS/MS analysis. The format is ADME, cell-based. On the technique in general: Caco-2 cells form a polarised layer with tight junctions and transporters.
Data set [2] is described as follows: Intrinsic clearance in human hepatocytes measured per million cells at 2 uM incubated for 15 to 120 mins by LC-MS/MS analysis. In kind it is ADME, cell-based, Hepatocyte. Particulars: time 15-120 min, read-out: CLH; call rule not given here.
A short description of data set [3]: Apparent permeability across apical to basal side in human Caco-2 cells at 10 uM incubated for 90 mins by LC-MS/MS analysis. In kind it is ADME, cell-based.
Data set [4] can be described thus: Lipophilicity, log D of compound in potassium phosphate buffer/octanol at pH 7.4 by shake flask method. The format is physicochemical.
Data set [5] is described as follows: Intrinsic clearance in mouse hepatocytes measured per million cells at 2 uM incubated for 15 to 120 mins by LC-MS/MS analysis. In kind it is ADME, cell-based, Hepatocyte. Particulars: time 15-120 min, read-out: CLH.
Data set [6] can be described thus: Unbound drug level in C57BL/6 mouse at 30 mg/kg, po measured for 12 hrs. In kind it is ADME, organism-based. Particulars: in vivo.

By Papp B→A is commonly meant how fast a substance crosses the layer from the basolateral side. In general, Papp A→B refers to how fast a substance crosses the layer from the apical side. As a reminder, the logD is the decadic logarithm of the distribution of all forms, ionised or not, between an organic phase and buffer at a given pH. The low end stands for lower lipophilicity, the high end for higher lipophilicity. Regarding `OC[C@H]1O[C@@H](Sc2cncc(Br)c2)[C@H](O)[C@@H](n2cc(-c3cc(F)c(F)c(F)c3)nn2)[C@H]1O`, the Papp B→A at […], 10 µM in data set [1] was […]. For the same compound, the hepatocyte CLint at 2 µM in data set [2] came out at 0.15 µL/min/1e6 cells; in data set [5] it was […]. Further, the Papp A→B at […], 10 µM in data set [3] came out at […]. In data set [4], this compound yielded a logD of […].

`OC[C@H]1O[C@@H](Sc2ccc(Cl)c(Cl)c2)[C@H](O)[C@@H](n2cc(-c3cc(F)c(F)c(F)c3)nn2)[C@H]1O`: in data set [1], the Papp B→A at […], 10 µM stood at […]. Further, the results for the hepatocyte CLint at 2 µM in data set [2] and in data set [5] were 0.7 µL/min/1e6 cells and 0.8 µL/min/1e6 cells, respectively. Also, the Papp A→B at […], 10 µM in data set [3] is […]. In data set [4], this compound came in with a logD of 4.6.

Turning to `OC[C@H]1O[C@@H](Sc2cncc(Br)c2)[C@H](O)[C@@H](n2cc(-c3cc(F)c(Cl)c(F)c3)nn2)[C@H]1O`, in data set [1], the Papp B→A at […], 10 µM was 17 ×10⁻⁶ cm/s. For the same compound, the logD in data set [4] is > 4. Besides, in data set [5], the hepatocyte CLint at 2 µM was determined as 0.6 µL/min/1e6 cells. Also, in data set [6], the “Drug uptake(free)” value is “Active”.
